This is an account of results in PMC9259591, “Irigenin, a novel lead from Iris confusa for management of Helicobacter pylori infection with selective COX-2 and HpIMPDH inhibitory potential” (Scientific Reports, 2022).

Values after ≈ are worked out from the molar mass of the structure shown. Values joined by “and” are separate entries in the source; they are usually repeats but may differ in a detail not shown here. Identical values can stand only once. Like-named read-outs stand apart in the source and are kept apart here.

In one test the test system is H. pylori ATCC 700392. The test is described as follows: anti-Helicobacter pylori activity, microwell dilution method with MTT. The settings on record: for MIC: read-out: MIC (H. pylori). It is filed as cell-based. The method, then:
The anti-Helicobacter pylori activity of the PF and NPF as well as the isolated compounds was evaluated against H. pylori ATCC 700392 (type strain, obtained from the American Type Culture Collection unit (ATCC), using microwell dilution method and clarithromycin as standard drug[37]. The detailed procedures were described in the supplementary file.
The anti-Helicobacter pylori activity of the PF and NPF as well as the isolated compounds was evaluated against H. pylori ATCC 700392 (a type strain, obtained from the American Type Culture Collection unit (ATCC), using microwell dilution method and clarithromycin as standard drug ^1. The tested samples were prepared in dimethyl sulfoxide and successive ten twofold dilutions (125- 0.24 µg/mL) were carried out in a 96-well plate. Each microplate well included forty μL of Brain Heart Infusion growth medium and 10% fetal bovine serum (FBS), ten μL of inoculum and fifty μL of the tested sample. The plates were incubated for 3 days, in 5% oxygen, 10% carbon dioxide, 85 % nitrogen atmosphere at 37°C. Forty μL of 3- (4, 5-dimethyl-thiazol-2-yl)- 2,5-diphenyl-tetrazolium bromide (MTT) at a final concentration of 0.5 mg/mL freshly prepared in H2O was added to each well and incubated for 30 min. The bacteria were biologically active when change to purple color was observed ^1. While no change in MTT color indicated inhibition. Solvent control (DMSO) and the standard antibiotic (clarithromycin) were used as negative and positive controls, respectively. The H. pylori inhibition % was calculated using the given formula:
% Inhibition = Abs control – Abs sample × 100 /Abs control.

Test [1] addresses T1, H. pylori inosine-5′-monophosphate dehydrogenase (HpIMPDH) (Helicobacter pylori, UniProt P56088).
T1 sequence (P56088 1-481): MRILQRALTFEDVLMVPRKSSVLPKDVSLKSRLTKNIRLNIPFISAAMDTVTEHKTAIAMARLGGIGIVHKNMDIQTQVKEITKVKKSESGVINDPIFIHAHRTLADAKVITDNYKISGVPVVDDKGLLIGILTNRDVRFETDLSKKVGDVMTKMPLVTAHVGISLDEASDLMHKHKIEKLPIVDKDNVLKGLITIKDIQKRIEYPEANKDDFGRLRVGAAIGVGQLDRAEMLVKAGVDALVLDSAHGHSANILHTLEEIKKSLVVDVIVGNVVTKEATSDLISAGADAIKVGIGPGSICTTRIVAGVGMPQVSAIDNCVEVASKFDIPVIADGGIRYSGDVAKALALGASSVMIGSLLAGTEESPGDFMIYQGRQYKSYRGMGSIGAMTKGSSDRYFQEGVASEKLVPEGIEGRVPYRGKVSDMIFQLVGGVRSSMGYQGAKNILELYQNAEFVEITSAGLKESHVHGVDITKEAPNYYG
Nature of the test: In vitro HpIMPDH inhibition assay (NADH fluorescence). It is filed as biochemical. Further details: HpIMPDH inhibitory activity: unit not given here. On the procedure:
The assay was carried out according to Galal[40] and was described in detail in the supplementary file.
(§1) Thus, irigenin was selected to test its HpIMPDH inhibitory activity by monitoring NADH production at concentration range of 10–0.078 µM compared to clarithromycin as standard drug. Also, to examine irigenin selectivity toward the bacterial IMPDH, human hIMPDH2 inhibition potential was assayed.
The assay was carried out in a final volume of two hundred μL in black 96-well plate (Tarsons Products Pvt. Ltd., Kolkata, India) with a reaction buffer composed of one hundred mM KCl, fifty mM Tris–HCl (pH 8.6), and one mM dithiothreitol (DTT). One hundred nM H. pylori inosine-5′-monophosphate dehydrogenase (HpIMPDH) in the presence/absence of the tested compound were used. The assay mixture was then incubated at 37 °C for 10 min, and the reaction was initiated by the adding 250 μM of inosine 5ʹ‐monophosphate (IMP) and 300 μM of nicotinamide adenine dinucleotide (NAD^+) substrate buffer. The assay was allowed to proceed for 45 min at 37 °C.
The formed NADH was measured by recording the fluorescence (excitation 340 nm, emission 440 nm) using PerkinElmer EnVision Multilabel Reader (Waltham, MA) at an interval of one min. DMSO and clarithromycin were used as vehicle control and positive control, respectively. The concentration of the tested sample leading to 50% HpIMPDH inhibition (IC50) was estimated.

Test [2] deals with T2, Human inosine-5′-monophosphate dehydrogenase (hIMPDH2) (Homo sapiens, UniProt P12268).
T2 construct: purchased NovoCIB SAS (Lyon, France)
The test is described as follows: In vitro hIMPDH2 inhibition assay (NADH absorbance at 340 nm). Also on record: key to hIMPDH2 inhibitory activity: % hIMPDH2 inhibition. The note with it: for hIMPDH2 inhibitory activity: in % (unit assumed). It is filed as biochemical. On the procedure: Human inosine-5′-monophosphate dehydrogenase (hIMPDH2) was purchased from NovoCIB SAS (Lyon, France). […] The detailed procedures were described in the supplementary file.
as §1
Human inosine-5′-monophosphate dehydrogenase (hIMPDH2) was purchased from NovoCIB SAS (Lyon, France). […] The assay was carried out in 96-well plates (Tarsons, 980040). The reaction buffer consisted of hundred mM KCl, hundred mM Tris–HCl (pH 8.6), and five mM DTT, 4% v/v DMSO with or without the tested compound and 0.15 mU of purified hIMPDH2 enzyme per well (from 1.5 mg/mL stock concentration). The enzyme stock solution final volume was 2 μL per well, which was insignificant to cause final assay buffer composition change. Addition of (substrate buffer) 0.2 mM of IMP and 0.2 mM of NAD^+ initiated the assay, then it was allowed to proceed for 30 min at 37 °C. The formed NADH was measured by reading the absorbance at 340 nm. […] The concentration of the tested sample leading to 50% hIMPDH2 inhibition (IC50) was estimated.

Setting [3] is: sample conc. 0.078 (range 10–0.078 µM).
[4] abbreviates: sample conc. 0.156 (range 10–0.078 µM).
Setting [5] is: sample conc. 0.313 (range 10–0.078 µM).
The mark [6] stands for this setting: sample conc. 0.625 (range 10–0.078 µM).
Setting [7] is: sample conc. 1.25 (range 10–0.078 µM).
Where [8] appears, read: sample conc. 2.5 (range 10–0.078 µM).
[9] abbreviates: sample conc. 5 (range 10–0.078 µM).
The mark [10] stands for this setting: sample conc. 10 (range 10–0.078 µM).

The term MIC denotes the least concentration at which growth counts as inhibited. Broadly, the IC50 is the concentration that gives 50% inhibition. Consider `COc1cc(-c2coc3cc(O)c(OC)c(O)c3c2=O)cc(O)c1OC` [Irigenin (P3), 3′,5,7-trihydroxy-4′,5′,6 trimethoxyisoflavone], for which the MIC in the test with H. pylori ATCC 700392 (Helicobacter pylori, ATCC700392) is 3.9 µg/mL and 10.8 µM; in the test with H. pylori ATCC 700392 (concentration required for 100% inhibition, H. pylori ATCC 700392), 10.82 µM (≈ 3.9 µg/mL). The “MIC (H. pylori)” value in the test with H. pylori ATCC 700392 (concentration required for 100% inhibition, H. pylori ATCC 700392, ND = not detected) was determined as 3.90 µg/mL (≈ 10.8 µM). Moreover, the concentration for half-maximal inhibition (IC50) is 2070 ± 1900 nM in test [1] and more than 10 µM in test [2]. The HpIMPDH inhibitory activity came out at 0.00 in test [1] (setting [3]); 0.00 in test [1] (setting [4]); 6.14 ± 1.90 in test [1] (setting [5]); 10.25 ± 2.80 in test [1] (setting [6]); 24.19 ± 1.70 in test [1] (setting [7]); 59.31 ± 1.40 in test [1] (setting [8]). The HpIMPDH inhibitory activity in test [1] (setting [9]) amounted to 71.08 ± 1.30; in test [1] (setting [10]) it was 83.25 ± 0.58. The hIMPDH2 inhibitory activity was found to be 0.00 in test [2] (setting [3]); 0.00 in test [2] (setting [4]); 0.00 in test [2] (setting [5]); 0.00 in test [2] (setting [6]); 0.00 in test [2] (setting [7]); 4.81 ± 0.91 in test [2] (setting [8]). Besides, the values for the hIMPDH2 inhibitory activity in test [2] (setting [9]) and in test [2] (setting [10]) were 10.36 ± 0.72 and 22.68 ± 1.00, respectively.
